Where two headings read alike, the source gives them in different places.
Biological target: T1, nitrendipine binding (purified sarcolemal vesicles) (Homo sapiens, UniProt Q13936)
T1 construct: purified sarcolemal vesicles in 50 mM tris-HCl; from tissue
Test: nitrendipine binding assay ([^3 H] nitrendipine, purified sarcolemal vesicles)
Description: As stated earlier, the compounds of the present invention have a property that enables them to be used as calcium entry blockers in the treatment of cardiovascular disorders.
In a representative assay, […] of purified sarcolemal vesicles in 50 mM tris-HCl, 10 uM calcium chloride, and […] magnesium chloride at pH 7.4 were incubated with […] [^3 H] nitrendipine (78 Ci/mmol) with or without test compound in a final volume of […] for 3 hours at 25° C. The inhibition constant Ki is determined according to the following equation: [formula] where I50 is the compound concentration that produces 50 percent inhibiton of binding, [L] is ligand concentration, and kd is the affinity constant of the ligand.

[1] = purified sarcolemal vesicles, 50 mM tris-HCl, pH 7.4, 0.23 mM [^3 H] nitrendipine, 3 hours at 25° C., read-out: Ki, Inhibition of Nitrendipine Binding

T1 sequence (Q13936 whole entry): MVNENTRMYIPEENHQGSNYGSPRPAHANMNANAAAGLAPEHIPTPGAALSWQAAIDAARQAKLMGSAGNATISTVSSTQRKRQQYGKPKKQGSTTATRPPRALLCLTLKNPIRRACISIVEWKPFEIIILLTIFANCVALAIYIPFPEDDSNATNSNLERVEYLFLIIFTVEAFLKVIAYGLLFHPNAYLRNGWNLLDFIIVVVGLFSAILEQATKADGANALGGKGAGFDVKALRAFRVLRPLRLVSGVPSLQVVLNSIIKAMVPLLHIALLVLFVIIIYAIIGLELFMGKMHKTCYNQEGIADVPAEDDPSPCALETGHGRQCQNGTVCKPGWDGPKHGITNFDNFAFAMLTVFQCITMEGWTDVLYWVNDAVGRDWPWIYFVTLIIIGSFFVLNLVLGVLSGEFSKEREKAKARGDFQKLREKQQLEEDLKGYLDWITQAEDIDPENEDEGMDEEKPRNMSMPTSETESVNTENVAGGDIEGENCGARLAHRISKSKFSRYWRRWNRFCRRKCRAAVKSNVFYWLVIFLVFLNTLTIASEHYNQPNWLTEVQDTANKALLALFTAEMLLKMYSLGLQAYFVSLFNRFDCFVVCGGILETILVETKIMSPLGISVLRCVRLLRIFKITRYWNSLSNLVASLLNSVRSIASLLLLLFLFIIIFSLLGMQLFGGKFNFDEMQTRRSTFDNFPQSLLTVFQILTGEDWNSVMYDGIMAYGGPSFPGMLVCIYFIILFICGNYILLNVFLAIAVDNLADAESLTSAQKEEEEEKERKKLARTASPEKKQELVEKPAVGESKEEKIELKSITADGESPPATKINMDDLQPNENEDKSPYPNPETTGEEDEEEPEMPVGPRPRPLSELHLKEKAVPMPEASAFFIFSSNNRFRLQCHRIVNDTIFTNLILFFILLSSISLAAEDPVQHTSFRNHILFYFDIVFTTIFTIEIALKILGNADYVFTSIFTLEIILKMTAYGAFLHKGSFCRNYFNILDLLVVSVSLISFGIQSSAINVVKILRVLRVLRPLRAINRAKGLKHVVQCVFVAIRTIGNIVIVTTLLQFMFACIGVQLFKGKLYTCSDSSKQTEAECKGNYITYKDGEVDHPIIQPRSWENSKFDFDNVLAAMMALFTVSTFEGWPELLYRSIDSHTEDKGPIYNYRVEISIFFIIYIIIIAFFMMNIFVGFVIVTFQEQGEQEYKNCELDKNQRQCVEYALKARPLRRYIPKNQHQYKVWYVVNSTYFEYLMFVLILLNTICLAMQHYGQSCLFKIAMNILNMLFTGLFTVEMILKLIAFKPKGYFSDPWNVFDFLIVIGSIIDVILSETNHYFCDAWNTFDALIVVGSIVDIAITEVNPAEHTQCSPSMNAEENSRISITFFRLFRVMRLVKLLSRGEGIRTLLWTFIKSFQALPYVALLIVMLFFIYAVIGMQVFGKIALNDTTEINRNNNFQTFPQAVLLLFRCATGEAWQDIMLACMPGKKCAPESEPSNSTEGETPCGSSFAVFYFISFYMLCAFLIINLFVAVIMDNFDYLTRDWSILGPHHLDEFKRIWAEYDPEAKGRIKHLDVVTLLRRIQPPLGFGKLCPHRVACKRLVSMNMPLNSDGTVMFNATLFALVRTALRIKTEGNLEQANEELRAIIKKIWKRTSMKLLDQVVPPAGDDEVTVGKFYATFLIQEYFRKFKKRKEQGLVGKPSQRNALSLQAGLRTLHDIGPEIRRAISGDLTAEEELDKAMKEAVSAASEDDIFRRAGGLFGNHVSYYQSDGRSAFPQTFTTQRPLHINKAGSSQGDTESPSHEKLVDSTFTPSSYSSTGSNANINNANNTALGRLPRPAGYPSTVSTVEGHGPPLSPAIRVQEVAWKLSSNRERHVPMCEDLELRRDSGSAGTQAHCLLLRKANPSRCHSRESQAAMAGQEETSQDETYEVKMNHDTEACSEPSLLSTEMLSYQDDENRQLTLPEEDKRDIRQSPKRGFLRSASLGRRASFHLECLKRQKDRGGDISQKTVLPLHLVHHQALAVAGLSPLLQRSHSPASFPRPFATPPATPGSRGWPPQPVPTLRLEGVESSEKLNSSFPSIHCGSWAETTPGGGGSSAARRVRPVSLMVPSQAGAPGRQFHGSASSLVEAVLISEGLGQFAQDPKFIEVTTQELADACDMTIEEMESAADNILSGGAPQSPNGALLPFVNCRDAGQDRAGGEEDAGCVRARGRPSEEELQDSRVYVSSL
T1 sequence (P54289 25-944 partner limits assumed): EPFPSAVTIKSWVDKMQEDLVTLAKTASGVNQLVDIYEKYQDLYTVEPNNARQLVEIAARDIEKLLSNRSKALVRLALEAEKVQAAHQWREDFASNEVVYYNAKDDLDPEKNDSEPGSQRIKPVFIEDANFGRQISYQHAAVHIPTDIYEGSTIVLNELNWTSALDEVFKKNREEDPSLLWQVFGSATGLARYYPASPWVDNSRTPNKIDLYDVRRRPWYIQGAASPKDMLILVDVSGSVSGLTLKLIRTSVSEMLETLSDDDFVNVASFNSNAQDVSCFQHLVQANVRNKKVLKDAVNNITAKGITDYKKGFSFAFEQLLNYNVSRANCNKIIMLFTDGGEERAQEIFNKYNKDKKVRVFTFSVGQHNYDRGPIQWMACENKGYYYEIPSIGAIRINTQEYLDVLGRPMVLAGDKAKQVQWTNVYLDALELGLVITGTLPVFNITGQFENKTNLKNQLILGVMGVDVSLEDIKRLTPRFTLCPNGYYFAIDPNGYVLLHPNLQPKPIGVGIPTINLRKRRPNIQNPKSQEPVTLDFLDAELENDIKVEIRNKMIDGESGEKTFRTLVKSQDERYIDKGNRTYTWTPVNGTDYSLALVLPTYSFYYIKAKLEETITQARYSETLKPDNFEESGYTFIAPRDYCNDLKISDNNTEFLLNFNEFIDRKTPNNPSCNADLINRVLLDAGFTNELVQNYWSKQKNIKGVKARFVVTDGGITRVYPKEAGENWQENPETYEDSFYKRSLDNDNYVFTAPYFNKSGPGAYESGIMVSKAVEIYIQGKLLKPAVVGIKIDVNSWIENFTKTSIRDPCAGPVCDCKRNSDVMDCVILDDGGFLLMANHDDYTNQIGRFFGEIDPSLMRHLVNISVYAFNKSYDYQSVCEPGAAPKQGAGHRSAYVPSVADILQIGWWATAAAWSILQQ
T1 sequence (P54289 945-1103 partner limits assumed): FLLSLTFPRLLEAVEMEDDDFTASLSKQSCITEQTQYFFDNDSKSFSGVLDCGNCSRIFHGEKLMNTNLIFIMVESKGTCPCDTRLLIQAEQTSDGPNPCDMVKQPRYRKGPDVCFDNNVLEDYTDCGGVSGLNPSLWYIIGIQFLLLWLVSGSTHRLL
T1 sequence (Q08289 whole entry partner): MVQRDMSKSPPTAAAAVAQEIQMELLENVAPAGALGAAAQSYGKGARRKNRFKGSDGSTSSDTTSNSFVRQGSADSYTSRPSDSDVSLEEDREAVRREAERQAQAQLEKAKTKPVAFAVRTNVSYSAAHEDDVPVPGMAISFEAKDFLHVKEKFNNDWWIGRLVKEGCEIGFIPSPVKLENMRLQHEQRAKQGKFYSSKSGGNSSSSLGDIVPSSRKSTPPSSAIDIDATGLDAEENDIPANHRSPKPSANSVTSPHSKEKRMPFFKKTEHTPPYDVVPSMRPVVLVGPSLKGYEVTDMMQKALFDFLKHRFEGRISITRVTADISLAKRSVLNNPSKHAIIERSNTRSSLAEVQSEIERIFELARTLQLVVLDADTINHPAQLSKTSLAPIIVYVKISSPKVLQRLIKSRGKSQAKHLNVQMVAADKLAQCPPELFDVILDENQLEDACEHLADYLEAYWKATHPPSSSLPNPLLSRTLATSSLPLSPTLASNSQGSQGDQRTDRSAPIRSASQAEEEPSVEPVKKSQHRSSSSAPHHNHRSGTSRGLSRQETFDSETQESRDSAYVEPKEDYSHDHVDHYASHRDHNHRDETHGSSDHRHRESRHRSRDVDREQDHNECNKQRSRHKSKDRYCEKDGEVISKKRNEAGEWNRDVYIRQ

## COC(=O)C1C(c2ccccc2)C2(C(=O)OC)C(C)=NC1(C)C1CC=CC12 (stereo not drawn) [Example 3, Dimethyl 1,4A,7,8A-tetrahydro-1,3-dimethyl-8-phenyl-1,4-ethano-4H-2-azetidinyl-4,9-dicarboxylate]
[1]
  Ki: 61 µM

## COC(=O)C1C(c2ccccc2)C2(C(=O)OC)C(C)=NC1(C)CC2C[Si](C)(C)C (stereo not drawn) [Example 1, Dimethyl 1,3-dimethyl-5-phenyl-8-[(trimethylsilyl)methyl]-2-azabicyclo[2.2.2]oct-2-ene-4,6-dicarboxylate]
  Ki: 17 µM

## COC(=O)C1C(c2ccccc2)C2(C(=O)OC)C(C)=NC1(C)CC2c1ccccc1 (stereo not drawn) [Example 2]
[1]
  Ki: 34 µM

Reference: patent publication US4808718A, “Fused polycyclic and bridged compounds useful as calcium channel blockers” (Merck & Co., Inc., priority 1986, dated 1989)
